Consider one molecule from patent publication US9422274B2, “Oxazolidinone derivatives and composition for preventing or treating hepatitis C containing the same” (KOREA INSTITUTE OF SCIENCE AND TECHNOLOGY, priority 2013, dated 2016).

Assay [1] deals with Hepatitis C virus. As to the kind of experiment: Anti-viral activity test (HCVcc, Type 2a), JFH 5a-Rluc luciferase in Huh7.5.1 cell line. It counts as cell-based. How it is done:
The inhibitory effect of the oxazolidinone compounds on HCV replicon and NS5A were HCV was tested by the method disclosed in KR-A 10-2010-0007937 or US-A 2010/0215696.
The cell lines containing replicon were prepared by preparing JFH 5a-Rluc (plasmid expressing Renilla luciferase reporter protein) RNA according to the method disclosed in the documents, introducing the JFH 5a-Rluc RNA into host cell lines (Huh7.5.1 cell line) by electroporation and infecting the host cell lines (Zhnog et al., Proc. Natl. Acad. Sci. USA, 102, 9294-9299). After the infected cell lines were cultured with or without the treatment of the oxazolidinone compound, the luciferase activity was detected to obtain the inhibitory effect of […] replicon replication. EC50) of the compound was determined by performing the test at various concentrations of the compound.
The compounds Example 1 to 17 were tested for anti-viral activity on Hepatitis C virus, according to the method of KR10-2010-0007937 (published on Jan. 22, 2010) or US2010/0215696 (published on Aug. 26, 2010).
The cell lines containing replicon were prepared by preparing JFH 5a-Rluc (plasmid expressing Renilla luciferase reporter protein) RNA according to the method disclosed in the documents, introducing the JFH 5a-Rluc RNA into host cell lines (Huh7.5.1 cell line) by electroporation and infecting the host cell lines (Zhnog et al., Proc. Natl. Acad. Sci. USA, 102, 9294-9299). After the infected cell lines were cultured with or without the treatment of 1 mM of the oxazolidinone compounds of Examples 1 to 17, the host cell lines were obtained on 1, 2 and 3 days after treatment, and the luciferase activity produced from the host cells was measured.
The luciferase activity of negative control which was not treated with the oxazolidinone compound is set to 100%. At various amounts of the oxazolidinone compounds, the luciferase activities were calculated based on the negative control to obtain the inhibition rate of HCV (%). The positive control was Interferon (INF)(Sigma, SRP4595).

In assay [2] the test system is Hepatitis C virus. Described as above. It counts as cell-based, Hepatitis C virus (HCVcc.

Broadly, the inhibition is the share of the control response that was lost under treatment. For `COC(=O)N[C@H](C(=O)N1CCC[C@H]1c1ncc(-c2ccc(-c3ccc(N4C[C@H](Cn5cc(COCc6ccccc6)nn5)OC4=O)cc3F)cc2)[nH]1)C(C)C` [Example 9, Methyl ((S)-1-((S)-2-(5-(4′-((R)-5-((4-((benzyloxy)methyl)-1H-1,2,3-triazol-1-yl)methyl)-2-oxooxazolidin-3-yl)-2′-fluoro-[1,1′-biphenyl]-4-yl)-1H-imidazol-2-yl)pyrrolidin-1-yl)-3-methyl-1-oxobutan-2-yl)carbamate], in the assay with Hepatitis C virus [1] (Huh-7.5.1, luciferase activity, negative control = 100%, Huh7.5.1 cells infected with JFH 5a-Rluc, read-out: HCV inhibition rate %), the inhibition came to 97.3%. Moreover, the EC50 in the assay on Hepatitis C virus [1] (Huh-7.5.1, read-out: EC50 (concentration of compound to inhibit the 50% of viral growth)) worked out at 17.4 nM. The inhibition at 0.001 µM with Hepatitis C virus [2] (Hepatitis C virus, Huh-7.5.1, read-out: inhibition rate) worked out at 97%. Moreover, the “remnant HCV amount” value in the assay on Hepatitis C virus [2] (treated at a concentration of 1 nM) was 3.0%.
